Columns and labels:
[1] = target: Peripheral plasma membrane protein CASK (Homo sapiens) (UniProt O14936); conditions: Compound concentration 1000.0 nM
[2] = target: Myosin light chain kinase (Homo sapiens) (UniProt Q32MK0); conditions: Compound concentration 1000.0 nM
[3] = target: T1, Tyrosine-protein kinase receptor TYRO3 (Homo sapiens) (UniProt Q06418); conditions: Compound concentration 1000.0 nM
T1 sequence (whole entry): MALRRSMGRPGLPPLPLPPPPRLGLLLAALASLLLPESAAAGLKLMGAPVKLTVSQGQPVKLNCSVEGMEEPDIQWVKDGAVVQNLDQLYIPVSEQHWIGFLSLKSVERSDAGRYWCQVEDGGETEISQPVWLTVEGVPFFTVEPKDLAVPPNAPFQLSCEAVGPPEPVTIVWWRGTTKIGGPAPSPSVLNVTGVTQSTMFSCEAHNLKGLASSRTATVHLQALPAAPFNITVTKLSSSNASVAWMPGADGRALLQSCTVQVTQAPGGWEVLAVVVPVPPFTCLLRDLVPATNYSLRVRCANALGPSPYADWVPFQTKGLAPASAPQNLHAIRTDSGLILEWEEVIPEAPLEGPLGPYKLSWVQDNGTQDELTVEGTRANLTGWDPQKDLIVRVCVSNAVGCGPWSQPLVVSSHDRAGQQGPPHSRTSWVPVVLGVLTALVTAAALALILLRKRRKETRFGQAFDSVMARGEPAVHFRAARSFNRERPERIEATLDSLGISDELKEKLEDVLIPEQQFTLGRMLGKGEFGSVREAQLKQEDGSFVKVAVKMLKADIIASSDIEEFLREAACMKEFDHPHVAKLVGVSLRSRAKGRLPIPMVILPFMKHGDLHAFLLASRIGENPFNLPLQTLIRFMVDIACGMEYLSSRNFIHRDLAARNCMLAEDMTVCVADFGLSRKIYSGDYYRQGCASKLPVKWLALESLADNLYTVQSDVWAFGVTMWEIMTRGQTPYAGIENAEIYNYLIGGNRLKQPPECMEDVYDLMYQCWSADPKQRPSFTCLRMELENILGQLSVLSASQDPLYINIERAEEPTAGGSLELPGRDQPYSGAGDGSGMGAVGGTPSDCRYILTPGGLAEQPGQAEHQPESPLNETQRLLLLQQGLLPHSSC

[4] = target: Protein-tyrosine kinase 2-beta (Homo sapiens) (UniProt Q14289); conditions: Compound concentration 1000.0 nM
[5] = target: Macrophage colony-stimulating factor 1 receptor (Homo sapiens) (UniProt P07333); conditions: Compound concentration 1000.0 nM
[6] = target: Mitogen-activated protein kinase kinase kinase 19 (Homo sapiens) (UniProt Q56UN5); conditions: Compound concentration 1000.0 nM
[7] = target: Phosphatidylinositol 4,5-bisphosphate 3-kinase catalytic subunit beta isoform (Homo sapiens) (UniProt P42338); conditions: Compound concentration 1000.0 nM
[8] = target: Serine/threonine-protein kinase 36 (Homo sapiens) (UniProt Q9NRP7); conditions: Compound concentration 1000.0 nM
[9] = target: Dual specificity tyrosine-phosphorylation-regulated kinase 1A (Homo sapiens) (UniProt Q13627); conditions: Compound concentration 1000.0 nM
[10] = tested on: Phosphatidylinositol 4,5-bisphosphate 3-kinase catalytic subunit alpha isoform (Homo sapiens), P42336 [E545A]; conditions: Compound concentration 1000.0 nM
[11] = target: Receptor-interacting serine/threonine-protein kinase 2 (Homo sapiens) (UniProt O43353); conditions: Compound concentration 1000.0 nM
[12] = target: Serine/threonine-protein kinase mTOR (Homo sapiens) (UniProt P42345); conditions: Compound concentration 1000.0 nM
[13] = target: Ribosomal protein S6 kinase alpha-6 (Homo sapiens) (UniProt Q9UK32); conditions: Compound concentration 1000.0 nM
[14] = target: Serine/threonine-protein kinase pim-2 (Homo sapiens) (UniProt Q9P1W9); conditions: Compound concentration 1000.0 nM
[15] = target: Mitogen-activated protein kinase 1 (Homo sapiens) (UniProt P28482); conditions: Compound concentration 1000.0 nM
[16] = target: Bone morphogenetic protein receptor type-2 (Homo sapiens) (UniProt Q13873); conditions: Compound concentration 1000.0 nM
[17] = target: Histamine H4 receptor (Homo sapiens) (UniProt Q9H3N8); conditions: Compound concentration 10.0 uM
[18] = target: T2, Alpha-2A adrenergic receptor (Homo sapiens) (UniProt P08913); conditions: Compound concentration 10.0 uM
T2 sequence (whole entry): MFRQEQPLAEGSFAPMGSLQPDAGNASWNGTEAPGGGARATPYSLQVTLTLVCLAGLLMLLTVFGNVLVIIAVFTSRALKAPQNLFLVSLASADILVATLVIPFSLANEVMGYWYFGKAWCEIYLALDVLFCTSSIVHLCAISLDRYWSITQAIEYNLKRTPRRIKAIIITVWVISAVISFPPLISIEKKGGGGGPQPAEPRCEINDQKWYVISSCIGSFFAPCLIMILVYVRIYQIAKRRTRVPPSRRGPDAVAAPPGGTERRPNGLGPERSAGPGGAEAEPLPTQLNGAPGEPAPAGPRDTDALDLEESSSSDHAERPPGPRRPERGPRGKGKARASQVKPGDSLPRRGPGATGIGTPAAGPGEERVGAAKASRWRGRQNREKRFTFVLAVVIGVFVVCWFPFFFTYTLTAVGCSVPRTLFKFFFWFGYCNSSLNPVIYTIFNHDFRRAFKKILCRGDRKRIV

Chain of Phosphatidylinositol 4,5-bisphosphate 3-kinase catalytic subunit alpha isoform (Homo sapiens), P42336 [E545A] (P42336 whole entry E545A, canonical isoform): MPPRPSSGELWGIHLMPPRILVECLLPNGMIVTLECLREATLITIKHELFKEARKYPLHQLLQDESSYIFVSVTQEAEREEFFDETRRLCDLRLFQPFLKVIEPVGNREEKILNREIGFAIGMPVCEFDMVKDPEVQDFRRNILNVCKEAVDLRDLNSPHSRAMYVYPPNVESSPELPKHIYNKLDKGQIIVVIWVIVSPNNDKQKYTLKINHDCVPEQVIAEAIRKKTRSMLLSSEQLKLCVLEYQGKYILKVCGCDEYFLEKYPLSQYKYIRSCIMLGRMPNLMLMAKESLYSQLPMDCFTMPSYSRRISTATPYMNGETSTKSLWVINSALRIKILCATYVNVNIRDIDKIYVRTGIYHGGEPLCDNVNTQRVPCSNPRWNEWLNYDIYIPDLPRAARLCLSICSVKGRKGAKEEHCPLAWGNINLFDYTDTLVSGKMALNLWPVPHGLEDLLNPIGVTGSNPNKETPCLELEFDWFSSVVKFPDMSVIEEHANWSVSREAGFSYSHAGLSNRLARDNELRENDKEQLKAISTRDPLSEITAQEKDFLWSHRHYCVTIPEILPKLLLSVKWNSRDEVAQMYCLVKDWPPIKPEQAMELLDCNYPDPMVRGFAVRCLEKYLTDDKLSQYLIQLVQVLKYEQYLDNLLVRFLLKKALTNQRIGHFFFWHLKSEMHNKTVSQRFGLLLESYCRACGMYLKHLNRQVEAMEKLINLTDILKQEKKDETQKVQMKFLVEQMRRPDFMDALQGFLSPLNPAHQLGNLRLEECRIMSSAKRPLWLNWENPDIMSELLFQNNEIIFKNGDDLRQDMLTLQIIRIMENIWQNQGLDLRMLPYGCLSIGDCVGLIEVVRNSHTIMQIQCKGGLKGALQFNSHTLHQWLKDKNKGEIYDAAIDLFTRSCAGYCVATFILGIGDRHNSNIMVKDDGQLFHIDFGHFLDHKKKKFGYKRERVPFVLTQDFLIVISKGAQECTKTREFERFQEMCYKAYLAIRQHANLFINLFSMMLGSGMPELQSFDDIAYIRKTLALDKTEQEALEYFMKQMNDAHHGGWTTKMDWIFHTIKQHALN
Chain of Phosphatidylinositol 4,5-bisphosphate 3-kinase catalytic subunit beta isoform (Homo sapiens) (P42338 whole entry, looked up, canonical isoform): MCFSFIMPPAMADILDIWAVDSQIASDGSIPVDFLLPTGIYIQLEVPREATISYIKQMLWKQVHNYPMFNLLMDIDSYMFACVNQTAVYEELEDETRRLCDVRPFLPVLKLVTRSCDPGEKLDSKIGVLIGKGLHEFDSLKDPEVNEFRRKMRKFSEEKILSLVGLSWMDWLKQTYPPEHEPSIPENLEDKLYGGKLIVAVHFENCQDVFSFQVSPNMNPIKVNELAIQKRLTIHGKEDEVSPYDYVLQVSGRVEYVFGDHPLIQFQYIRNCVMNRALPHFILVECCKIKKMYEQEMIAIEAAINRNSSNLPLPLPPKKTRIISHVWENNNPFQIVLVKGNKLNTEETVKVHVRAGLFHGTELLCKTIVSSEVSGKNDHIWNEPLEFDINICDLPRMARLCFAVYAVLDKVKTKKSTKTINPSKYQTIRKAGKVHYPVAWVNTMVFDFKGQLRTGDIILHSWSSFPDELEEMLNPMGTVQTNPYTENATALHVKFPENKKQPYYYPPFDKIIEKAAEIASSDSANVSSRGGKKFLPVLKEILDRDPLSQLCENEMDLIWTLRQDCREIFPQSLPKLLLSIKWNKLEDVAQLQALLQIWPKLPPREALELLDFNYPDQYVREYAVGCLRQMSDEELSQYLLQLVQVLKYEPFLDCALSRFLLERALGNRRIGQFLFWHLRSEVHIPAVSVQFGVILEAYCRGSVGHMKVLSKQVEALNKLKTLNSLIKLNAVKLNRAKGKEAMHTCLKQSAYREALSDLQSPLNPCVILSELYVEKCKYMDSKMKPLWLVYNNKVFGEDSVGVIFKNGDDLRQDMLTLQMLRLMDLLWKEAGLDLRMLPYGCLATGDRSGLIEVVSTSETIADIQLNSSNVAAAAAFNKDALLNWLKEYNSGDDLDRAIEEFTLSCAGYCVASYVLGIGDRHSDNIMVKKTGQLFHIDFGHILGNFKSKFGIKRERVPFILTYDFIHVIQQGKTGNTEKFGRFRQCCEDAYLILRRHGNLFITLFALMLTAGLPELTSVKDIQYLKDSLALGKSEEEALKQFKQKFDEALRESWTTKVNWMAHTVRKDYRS
Chain of Serine/threonine-protein kinase 36 (Homo sapiens) (Q9NRP7 whole entry): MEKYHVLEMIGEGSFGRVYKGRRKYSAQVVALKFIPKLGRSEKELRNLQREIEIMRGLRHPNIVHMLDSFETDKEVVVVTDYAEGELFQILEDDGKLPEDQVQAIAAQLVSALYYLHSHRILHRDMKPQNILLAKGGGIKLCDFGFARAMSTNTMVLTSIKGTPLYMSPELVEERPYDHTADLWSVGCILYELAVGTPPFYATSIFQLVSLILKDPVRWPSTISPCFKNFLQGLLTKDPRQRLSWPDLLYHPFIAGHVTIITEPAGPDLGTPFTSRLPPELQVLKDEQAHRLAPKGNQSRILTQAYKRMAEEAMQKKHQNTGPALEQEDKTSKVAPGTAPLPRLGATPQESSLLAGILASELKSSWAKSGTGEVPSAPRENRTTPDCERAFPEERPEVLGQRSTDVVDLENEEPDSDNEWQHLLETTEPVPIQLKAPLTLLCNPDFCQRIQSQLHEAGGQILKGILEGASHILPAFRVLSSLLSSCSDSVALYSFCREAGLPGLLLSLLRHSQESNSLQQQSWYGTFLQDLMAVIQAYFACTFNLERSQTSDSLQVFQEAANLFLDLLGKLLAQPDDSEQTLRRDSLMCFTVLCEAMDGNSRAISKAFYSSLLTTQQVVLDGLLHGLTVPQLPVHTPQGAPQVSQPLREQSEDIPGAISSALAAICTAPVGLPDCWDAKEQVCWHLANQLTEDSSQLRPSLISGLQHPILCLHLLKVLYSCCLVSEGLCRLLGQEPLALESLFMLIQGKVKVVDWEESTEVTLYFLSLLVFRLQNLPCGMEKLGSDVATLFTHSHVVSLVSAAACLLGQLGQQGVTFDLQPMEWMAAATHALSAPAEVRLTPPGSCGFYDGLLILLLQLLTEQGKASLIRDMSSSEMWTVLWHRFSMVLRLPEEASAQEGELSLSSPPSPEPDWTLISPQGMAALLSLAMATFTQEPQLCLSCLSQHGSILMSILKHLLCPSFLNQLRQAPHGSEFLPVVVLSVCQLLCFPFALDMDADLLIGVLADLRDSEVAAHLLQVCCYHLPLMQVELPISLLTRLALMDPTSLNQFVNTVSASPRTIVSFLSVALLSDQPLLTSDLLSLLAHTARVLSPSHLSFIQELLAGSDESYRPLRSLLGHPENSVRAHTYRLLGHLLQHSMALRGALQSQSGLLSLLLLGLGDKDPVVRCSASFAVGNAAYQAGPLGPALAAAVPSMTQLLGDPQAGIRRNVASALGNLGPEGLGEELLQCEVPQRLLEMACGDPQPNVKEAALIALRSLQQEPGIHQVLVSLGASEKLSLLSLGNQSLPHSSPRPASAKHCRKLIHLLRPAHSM
Chain of Myosin light chain kinase (Homo sapiens) (Q32MK0 whole entry): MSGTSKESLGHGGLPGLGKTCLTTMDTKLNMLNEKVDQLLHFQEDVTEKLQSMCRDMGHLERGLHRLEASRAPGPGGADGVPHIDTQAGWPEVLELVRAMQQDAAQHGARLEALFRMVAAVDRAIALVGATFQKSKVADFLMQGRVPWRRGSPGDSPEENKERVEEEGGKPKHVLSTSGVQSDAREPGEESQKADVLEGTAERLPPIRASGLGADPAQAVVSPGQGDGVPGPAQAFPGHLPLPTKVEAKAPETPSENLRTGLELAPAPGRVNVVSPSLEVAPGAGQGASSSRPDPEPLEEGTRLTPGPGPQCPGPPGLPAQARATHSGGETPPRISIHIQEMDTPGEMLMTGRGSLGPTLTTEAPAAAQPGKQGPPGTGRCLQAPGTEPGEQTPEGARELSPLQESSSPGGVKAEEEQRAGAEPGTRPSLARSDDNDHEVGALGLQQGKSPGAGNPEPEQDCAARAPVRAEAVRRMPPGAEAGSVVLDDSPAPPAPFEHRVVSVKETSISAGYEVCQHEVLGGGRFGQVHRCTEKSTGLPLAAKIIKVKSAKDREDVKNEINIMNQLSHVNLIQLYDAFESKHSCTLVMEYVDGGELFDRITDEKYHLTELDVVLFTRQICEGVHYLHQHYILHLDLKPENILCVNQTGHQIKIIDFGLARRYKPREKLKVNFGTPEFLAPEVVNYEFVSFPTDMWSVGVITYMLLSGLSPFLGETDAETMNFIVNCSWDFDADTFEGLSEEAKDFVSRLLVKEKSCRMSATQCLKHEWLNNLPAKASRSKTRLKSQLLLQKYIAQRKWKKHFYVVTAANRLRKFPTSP
Chain of Ribosomal protein S6 kinase alpha-6 (Homo sapiens) (Q9UK32 whole entry): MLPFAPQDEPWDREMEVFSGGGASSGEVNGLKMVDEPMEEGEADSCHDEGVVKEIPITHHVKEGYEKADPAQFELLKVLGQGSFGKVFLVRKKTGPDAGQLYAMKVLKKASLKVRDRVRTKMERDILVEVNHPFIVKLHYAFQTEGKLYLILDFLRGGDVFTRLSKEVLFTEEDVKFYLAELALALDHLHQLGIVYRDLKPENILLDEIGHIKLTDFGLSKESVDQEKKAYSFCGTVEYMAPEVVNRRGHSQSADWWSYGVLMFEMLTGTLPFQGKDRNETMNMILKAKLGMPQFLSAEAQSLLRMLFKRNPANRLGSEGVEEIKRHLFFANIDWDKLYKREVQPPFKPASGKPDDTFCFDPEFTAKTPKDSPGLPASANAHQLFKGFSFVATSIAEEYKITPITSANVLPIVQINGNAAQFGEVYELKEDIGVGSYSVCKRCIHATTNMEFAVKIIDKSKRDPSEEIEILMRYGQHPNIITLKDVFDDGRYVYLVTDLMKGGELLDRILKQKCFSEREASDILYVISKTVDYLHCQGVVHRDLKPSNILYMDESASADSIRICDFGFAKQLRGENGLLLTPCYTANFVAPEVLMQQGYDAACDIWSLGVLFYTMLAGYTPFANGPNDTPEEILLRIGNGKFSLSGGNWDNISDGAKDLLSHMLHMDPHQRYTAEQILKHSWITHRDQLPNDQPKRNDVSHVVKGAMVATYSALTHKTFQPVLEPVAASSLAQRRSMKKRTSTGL

Compound | residual activity [1] [%] | residual activity [2] [%] | residual activity [3] [%] | residual activity [4] [%] | residual activity [5] [%] | residual activity [6] [%] | residual activity [7] [%] | residual activity [8] [%] | residual activity [9] [%] | residual activity [10] [%] | residual activity [11] [%] | residual activity [12] [%] | residual activity [13] [%] | residual activity [14] [%] | residual activity [15] [%] | residual activity [16] [%] | inhibition [17] [%] | inhibition [18] [%]
CN(C)C(=O)Cn1cc(-c2nc(C3(c4ccc(-c5cnc(N)nc5)cc4)CC3)no2)cn1 [BI 0153] | 76 | 100 | 83 | 90 | 84 | 73 | 96 | 75 | 66 | 99 | 100 | 91 | 100 | 100 | 81 | 93 | 36.6 | 22.4
CN(C)C(=O)Cn1cc(-c2nc([C@@](C)(c3ccc(-c4cnc(N)nc4)cc3)C3CC3)no2)cn1 [BI 665915] | 82 | 100 | 100 | 87 | 96 | 61 | 100 | 79 | 73 | 75 | 87 | 100 | 100 | 100 | 100 | 94 | 55.2 | -3.33
